Among the data in patent US10793580B2, “Substituted pyrazoloazepin-8-ones and their use as phosphodiesterase inhibitors” (LEO Pharma A/S, priority 2016, dated 2020) are IC50 values, retold here.

pIC50: −log10 of the molar value. Where only a bound is given, the exact number is not on record here.

Chain of human PDE4D catalytic domain (Q08499 380-740): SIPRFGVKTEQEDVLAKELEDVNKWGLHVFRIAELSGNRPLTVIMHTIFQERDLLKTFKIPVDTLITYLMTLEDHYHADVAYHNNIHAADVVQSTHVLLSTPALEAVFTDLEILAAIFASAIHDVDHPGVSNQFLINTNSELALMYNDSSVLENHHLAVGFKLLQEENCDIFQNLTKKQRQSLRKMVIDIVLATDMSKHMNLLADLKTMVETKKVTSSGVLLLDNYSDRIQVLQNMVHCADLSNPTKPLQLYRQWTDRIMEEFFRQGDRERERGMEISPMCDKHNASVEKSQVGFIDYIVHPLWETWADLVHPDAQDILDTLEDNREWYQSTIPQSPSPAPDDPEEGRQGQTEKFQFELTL

For this experiment, the target named is human PDE4D catalytic domain (Homo sapiens (Human), UniProt Q08499). In words: PDE4 Assay (TR-FRET, FAM-cAMP cleavage). It counts as biochemical. As to conditions: human PDE4D catalytic domain (UniProt Q08499 [S380-L740]); 50% inhibition of substrate cleavage; read-out: PDE4 IC50 range. The method in brief:
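PDE4D catalytic domain (S380-L740) incubated briefly with unlabelled cAMP plus FAM-cAMP and titrated compound. Reaction stopped with binding buffer holding metal-ion nanoparticles that bind AMP phospho groups and Tb donor, and AMP formation read by TR-FRET. IC50 versus controls, reported as ranges (nM).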
For orientation: TR-FRET usually uses a lanthanide donor and a delayed reading to cut background.
As to `CCn1nc(C[C@@H](C)COC(=O)c2ccc(C(=O)N3CCCCC3)cc2)c2c1C(=O)NCC1(CCOCC1)C2` [Example 173, [(2R)-3-(1-ethyl-8-oxo-spiro[6,7-dihydro-4H-pyrazolo[3,4-c]azepine-5,4′-tetrahydropyran]-3-yl)-2-methyl-propyl] 4-(piperidine-1-carbonyl)benzoate], the negative logarithm of the IC50 (pIC50) – broadly, the negative decadic logarithm of the IC50, by convention in mol/L – is > 7.00.
Next, `CCn1nc(C[C@@H](C)COC(=O)c2ccc(C(=O)N3CCOCC3)cc2)c2c1C(=O)NCC1(CCOCC1)C2` [Example 174, [(2R)-3-(1-ethyl-8-oxo-spiro[6,7-dihydro-4H-pyrazolo[3,4-c]azepine-5,4′-tetrahydropyran]-3-yl)-2-methyl-propyl] 4-(morpholine-4-carbonyl)benzoate]: > 7.00.
For the compound `CCn1nc(C[C@@H](C)COC(=O)c2ccc(C(=O)N3CCN(C)CC3)cc2)c2c1C(=O)NCC1(CCOCC1)C2` [Example 175, [(2R)-3-(1-ethyl-8-oxo-spiro[6,7-dihydro-4H-pyrazolo[3,4-c]azepine-5,4′-tetrahydropyran]-3-yl)-2-methyl-propyl] 4-(4-methylpiperazine-1-carbonyl)benzoate], the pIC50 was > 7.00.
Next, `CCn1nc(C[C@@H](C)COC(=O)c2ccc(C(=O)N3CCN(C(C)=O)CC3)cc2)c2c1C(=O)NCC1(CCOCC1)C2` [Example 176, [(2R)-3-(1-ethyl-8-oxo-spiro[6,7-dihydro-4H-pyrazolo[3,4-c]azepine-5,4′-tetrahydropyran]-3-yl)-2-methyl-propyl] 4-(4-acetylpiperazine-1-carbonyl)benzoate]: > 7.00; `CCn1nc(C[C@@H](C)COC(=O)c2cccc(C(N)=O)c2)c2c1C(=O)NCC1(CCOCC1)C2` [Example 178, [(2R)-3-(1-ethyl-8-oxo-spiro[6,7-dihydro-4H-pyrazolo[3,4-c]azepine-5,4′-tetrahydropyran]-3-yl)-2-methyl-propyl] 3-carbamoylbenzoate]: > 7.00; `CCn1nc(C[C@@H](C)COC(=O)c2cccc(C(=O)NC)c2)c2c1C(=O)NCC1(CCOCC1)C2` [Example 179, [(2R)-3-(1-ethyl-8-oxo-spiro[6,7-dihydro-4H-pyrazolo[3,4-c]azepine-5,4′-tetrahydropyran]-3-yl)-2-methyl-propyl] 3-(methylcarbamoyl)benzoate]: > 7.00.
Then `CCn1nc(C[C@@H](C)COC(=O)c2cccc(C(=O)N(C)C)c2)c2c1C(=O)NCC1(CCOCC1)C2` [Example 180, [(2R)-3-(1-ethyl-8-oxo-spiro[6,7-dihydro-4H-pyrazolo[3,4-c]azepine-5,4′-tetrahydropyran]-3-yl)-2-methyl-propyl] 3-(di-methylcarbamoyl)benzoate], with > 7.00; and `CCn1nc(C[C@@H](C)COC(=O)c2cccc(C(=O)N3CCCC3)c2)c2c1C(=O)NCC1(CCOCC1)C2` [Example 181, [(2R)-3-(1-ethyl-8-oxo-spiro[6,7-dihydro-4H-pyrazolo[3,4-c]azepine-5,4′-tetrahydropyran]-3-yl)-2-methyl-propyl] 3-(pyrrolidine-1-carbonyl)benzoate], with > 7.00.
Next, `CCn1nc(C[C@@H](C)COC(=O)c2cccc(C(=O)N3CCCCC3)c2)c2c1C(=O)NCC1(CCOCC1)C2` [Example 182, [(2R)-3-(1-ethyl-8-oxo-spiro[6,7-dihydro-4H-pyrazolo[3,4-c]azepine-5,4′-tetrahydropyran]-3-yl)-2-methyl-propyl] 3-(piperidine-1-carbonyl)benzoate]: > 7.00; `CCn1nc(C[C@@H](C)COC(=O)c2cccc(C(=O)N3CCOCC3)c2)c2c1C(=O)NCC1(CCOCC1)C2` [Example 183, [(2R)-3-(1-ethyl-8-oxo-spiro[6,7-dihydro-4H-pyrazolo[3,4-c]azepine-5,4′-tetrahydropyran]-3-yl)-2-methyl-propyl] 3-(morpholine-4-carbonyl)benzoate]: > 7.00; `CCn1nc(C[C@@H](C)COC(=O)c2cccc(C(=O)N3CCN(C)CC3)c2)c2c1C(=O)NCC1(CCOCC1)C2` [Example 184, [(2R)-3-(1-ethyl-8-oxo-spiro[6,7-dihydro-4H-pyrazolo[3,4-c]azepine-5,4′-tetrahydropyran]-3-yl)-2-methyl-propyl] 3-(4-methylpiperazine-1-carbonyl)benzoate]: > 7.00.
Turning to `CCn1nc(C[C@@H](C)COC(=O)c2cccc(C(=O)N3CCN(C(C)=O)CC3)c2)c2c1C(=O)NCC1(CCOCC1)C2` [Example 185, [(2R)-3-(1-ethyl-8-oxo-spiro[6,7-dihydro-4H-pyrazolo[3,4-c]azepine-5,4′-tetrahydropyran]-3-yl)-2-methyl-propyl] 3-(4-acetylpiperazine-1-carbonyl)benzoate], the pIC50 is > 7.00.
Consider `CCn1nc(CC(C)(C)COC(=O)CCOC)c2c1C(=O)NCC1(CCOCC1)C2` [Example 186, [3-(1-ethyl-8-oxo-spiro[6,7-dihydro-4H-pyrazolo[3,4-c]azepine-5,4′-tetrahydropyran]-3-yl)-2,2-dimethyl-propyl] 3-methoxypropanoate], for which the negative logarithm of the IC50 (pIC50) is > 7.00.
Then `CCn1nc(CC(C)(C)COC(=O)CCSC)c2c1C(=O)NCC1(CCOCC1)C2` [Example 187, [3-(1-ethyl-8-oxo-spiro[6,7-dihydro-4H-pyrazolo[3,4-c]azepine-5,4′-tetrahydropyran]-3-yl)-2,2-dimethyl-propyl] 3-methylsulfanylpropanoate], with > 7.00; and `CCn1nc(CC(C)(C)COC(=O)c2ccc(C)cc2)c2c1C(=O)NCC1(CCOCC1)C2` [Example 188, [3-(1-ethyl-8-oxo-spiro[6,7-dihydro-4H-pyrazolo[3,4-c]azepine-5,4′-tetrahydropyran]-3-yl)-2,2-dimethyl-propyl] 4-methylbenzoate], with > 7.00; and `CCn1nc(CC(C)(C)COC(=O)c2ccccc2C)c2c1C(=O)NCC1(CCOCC1)C2` [Example 189, [3-(1-ethyl-8-oxo-spiro[6,7-dihydro-4H-pyrazolo[3,4-c]azepine-5,4′-tetrahydropyran]-3-yl)-2,2-dimethyl-propyl] 2-methylbenzoate], with > 7.00.
Next, `CCn1nc(CC(C)(C)COC(=O)c2cccc(C)c2)c2c1C(=O)NCC1(CCOCC1)C2` [Example 190, [3-(1-ethyl-8-oxo-spiro[6,7-dihydro-4H-pyrazolo[3,4-c]azepine-5,4′-tetrahydropyran]-3-yl)-2,2-dimethyl-propyl] 3-methylbenzoate]: > 7.00; `CCn1nc(CC(C)(C)COC(=O)c2cccc(F)c2)c2c1C(=O)NCC1(CCOCC1)C2` [Example 191, [3-(1-ethyl-8-oxo-spiro[6,7-dihydro-4H-pyrazolo[3,4-c]azepine-5,4′-tetrahydropyran]-3-yl)-2,2-dimethyl-propyl] 3-fluorobenzoate]: > 7.00.
Then `CCn1nc(CC(C)(C)COC(=O)c2ccc(F)cc2)c2c1C(=O)NCC1(CCOCC1)C2` [Example 192, [3-(1-ethyl-8-oxo-spiro[6,7-dihydro-4H-pyrazolo[3,4-c]azepine-5,4′-tetrahydropyran]-3-yl)-2,2-dimethyl-propyl] 4-fluorobenzoate], with > 7.00; and `CCn1nc(CC(C)(C)COC(=O)c2ccccc2F)c2c1C(=O)NCC1(CCOCC1)C2` [Example 193, [3-(1-ethyl-8-oxo-spiro[6,7-dihydro-4H-pyrazolo[3,4-c]azepine-5,4′-tetrahydropyran]-3-yl)-2,2-dimethyl-propyl] 2-fluorobenzoate], with > 7.00.
With `CCn1nc(CC(C)(C)COC(=O)[C@H]2CC[C@H](O)CC2)c2c1C(=O)NCC1(CCOCC1)C2` [Example 194, [3-(1-ethyl-8-oxo-spiro[6,7-dihydro-4H-pyrazolo[3,4-c]azepine-5,4′-tetrahydropyran]-3-yl)-2,2-dimethyl-propyl] 4-hydroxycyclohexane-carboxylate], the pIC50 was > 7.00.
On to `CCc1ccc(C(=O)OCC(C)(C)Cc2nn(CC)c3c2CC2(CCOCC2)CNC3=O)cc1` [Example 195, [3-(1-ethyl-8-oxo-spiro[6,7-dihydro-4H-pyrazolo[3,4-c]azepine-5,4′-tetrahydropyran]-3-yl)-2,2-dimethyl-propyl] 4-ethylbenzoate], for which the pIC50 is > 7.00.
Next, `CCn1nc(CC(C)(C)COC(=O)c2cccc(OC)c2)c2c1C(=O)NCC1(CCOCC1)C2` [Example 196, [3-(1-ethyl-8-oxo-spiro[6,7-dihydro-4H-pyrazolo[3,4-c]azepine-5,4′-tetrahydropyran]-3-yl)-2,2-dimethyl-propyl] 3-methoxybenzoate]: > 7.00; `CCn1nc(CC(C)(C)COC(=O)c2ccc(OC)cc2)c2c1C(=O)NCC1(CCOCC1)C2` [Example 197, [3-(1-ethyl-8-oxo-spiro[6,7-dihydro-4H-pyrazolo[3,4-c]azepine-5,4′-tetrahydropyran]-3-yl)-2,2-dimethyl-propyl] 4-methoxybenzoate]: > 7.00; `CCn1nc(CC(C)(C)COC(=O)c2ccccc2OC)c2c1C(=O)NCC1(CCOCC1)C2` [Example 198, [3-(1-ethyl-8-oxo-spiro[6,7-dihydro-4H-pyrazolo[3,4-c]azepine-5,4′-tetrahydropyran]-3-yl)-2,2-dimethyl-propyl] 2-methoxybenzoate]: > 7.00.
Next, `CCn1nc(CC(C)(C)COC(=O)CCS(C)(=O)=O)c2c1C(=O)NCC1(CCOCC1)C2` [Example 199, [3-(1-ethyl-8-oxo-spiro[6,7-dihydro-4H-pyrazolo[3,4-c]azepine-5,4′-tetrahydropyran]-3-yl)-2,2-dimethyl-propyl] 3-methylsulfonylpropanoate]: > 7.00; `CCn1nc(CC(C)(C)COC(=O)c2ccc(C(C)=O)cc2)c2c1C(=O)NCC1(CCOCC1)C2` [Example 200, [3-(1-ethyl-8-oxo-spiro[6,7-dihydro-4H-pyrazolo[3,4-c]azepine-5,4′-tetrahydropyran]-3-yl)-2,2-dimethyl-propyl] 4-acetylbenzoate]: > 7.00.
